“Also recorded” adds a separate entry of the source. Bridge positions count the residues as written; N and C are the ends. Square brackets hold non-standard residues; d marks the D form. I, II: the chains in the order shown. ξ: configuration not given here. ξGly(tetradecyl) = CCCCCCCCCCCCCCC(N)C(=O)O

The target in data set [1] is Motavizumab (site II specific). The data set can be described thus: ELISA binding of Motavizumab to plate-coated vaccine constructs, one-site model. Further details: species or system human. The conditions noted are these: serial dilution of antibody on ELISA plates coated with construct; saturation one-site specific binding model; read-out: Mota kD. The method, then:
(§1) We further tested the ability of site II and site Ø specific antibodies (Motavizumab and D25, respectively) to recognise the peptides and LCP constructs. Dissociation constant (kD) values were derived from a saturation one-site model. D25 clearly recognised the ØLCP2 (66 ± 14 nM) but not ØLCP1 (Fig. 3A). In comparison, in our analysis D25 bound to the native pre-fusion RSV F (FDs-Cav1) with approximately […] stronger avidity (0.92 ± 0.08 nM). Motavizumab bound IILCP4 with the highest avidity (3.8 ± 0.9 nM), while in our analysis Motavizumab bound FDs-Cav1 with approximately 25 fold stronger avidity (0.15 ± 0.01 nM). Motavizumab also recognised IILCP3, 5, 6 and 7 and IIP5 (Fig. 3B). In general binding avidity was stronger for LCP constructs compared to original peptides.
Figure 3 Binding avidity of monoclonal antibodies against vaccine candidates. Antibody binding assessed by serial dilution of antibody on ELISA plates were coated with vaccine constructs and curve fitting by non-linear regression with a one site specific binding model using Graphpad Prism 7 software. (A) D25 antibody recognised ØLCP2 (kD: 66 ± 014 nM) and to a lesser extent ØP2 (kD: 720 ± 036nM). Binding to FDs Cav1 used as positive control (kD: 0.92 ± 00.08 nM). Motavizumab recognised IILCP4 (kD: 3.8 ± 00.9nM), IILCP5 (kD: 16 ± 03nM), IILCP7 (kD: 17 ± 011nM), IIP5 (kD: 23 ± 05nM) and to a lesser extent IILCP6 (kD: 40 ± 04nM). Binding FDs Cav1 was used as a positive control (kD: 0.15 ± 00.01nM).
An indirect enzyme-linked immunosorbent assay (ELISA) was used to determine the IgG antibody titre. Peptide antigens were used to coat 96-well plates (TITERTEK®) at a concentration of 5 μg/ml in 20 mM sodium carbonate buffer (pH 9.6), overnight at 4 °C. […] Plates were washed as above and secondary antibody binding was detected with the addition of 3,3′,5,5′-Tetramethylbenzidine (TMB) reagent (Thermo Fisher Scientific) at 50 µl/well. Reactions were stopped with 2M H2SO4 (25 µl/well) and absorbance was read at 450 nm on a SpectraMax® 190 (Molecular Devices) microplate reader.
On the technique in general: An ELISA detects its analyte on a solid surface through an enzyme-linked reagent.

In data set [2] the test system is relevant antigen (peptide and LCP constructs). As to the kind of experiment: IgG antibody titres in sera of immunised mice against the relevant antigen (ELISA). The data set is classed as in vivo, C57BL/6 mice. The conditions noted are these: 30 µg s.c. on day 0, 21, 28, 35, LCP in PBS with 1% DMSO, peptides mixed with PADRE and CFA, ELISA against matched antigen. The method, then: A total of 70 female C57BL/6 mice (6–8 weeks old) were purchased from the University of Queensland Biological Resources (UQBR), and housed in the AIBN animal house facility. All experimental procedures performed in this study were carried out in accordance with National Health & Medical Research Council guidelines and approved by The University of Queensland Animal Ethics Committee. Mice (n=5 per group) were injected subcutaneously at the tail base on day 0, 21, 28, 35 (Supplementary, Fig S15) with 30 µg of each construct in phosphate-buffered saline (PBS). 1% DMSO was included for LCP constructs to aid solubility. The negative control group were administered with 50 μl of PBS. Control groups included peptides (ØP1,2 and IIP3–5) physically mixed with PADRE (1:1) and emulsified in a total volume of 50 μl of complete Freund’s adjuvant (CFA)-PBS (1:1) for the first immunisation and PADRE-peptide mixture in PBS for subsequent immunisations. […]
An indirect enzyme-linked immunosorbent assay (ELISA) was used to determine the IgG antibody titre. […] Plates were washed as above and secondary antibody binding was detected with the addition of 3,3′,5,5′-Tetramethylbenzidine (TMB) reagent (Thermo Fisher Scientific) at 50 µl/well. Reactions were stopped with 2M H2SO4 (25 µl/well) and absorbance was read at 450 nm on a SpectraMax® 190 (Molecular Devices) microplate reader.

The nature of data set [3]: Particle size analysis by dynamic light scattering. The data set is classed as physicochemical. Conditions: 1% DMSO in PBS, 600 µg/ml, 25 °C, 173° backscattering, five replicates. The procedure: Peptides were dissolved in 1% DMSO in phosphate buffered saline (PBS) to a concentration of 600 µg/ml. Particle size was measured using a Zetasizer Nano ZP instrument (Malvern Instrument, UK) via M3-PALS technique with a 173° backscattering angle, at 25 °C. Measurement was performed in five replicates.

Data set [4] in a line: Secondary structure analysis by circular dichroism. The conditions noted are these: 600 µg/ml; spectra not detected. The data set is classed as physicochemical. The procedure:
Conformational studies of constructs were performed using a J-710 spectropolarimeter (Jasco Corporation, Japan). Samples with 600 µg/ml concentration were transferred into a low volume quartz cuvette with 0.1 cm path length. CD spectra were analysed between 250 nm and 190 nm wavelengths. Measurements were performed in triplicate (reported as an average of readings). Spectral results are reported as mean residual ellipticity (θ) versus wavelength (nm).
(In general: Circular dichroism is the unequal absorption of left and right circularly polarised light.)

Data set [5] relates to D25 antibody (site Ø specific). The data set can be described thus: ELISA binding of D25 antibody to plate-coated vaccine constructs, one-site model. Conditions: construct coated on plate. Set-up: species or system human. The procedure: as §1
Figure 3 Binding avidity of monoclonal antibodies against vaccine candidates. Antibody binding assessed by serial dilution of antibody on ELISA plates were coated with vaccine constructs and curve fitting by non-linear regression with a one site specific binding model using Graphpad Prism 7 software. […]
An indirect enzyme-linked immunosorbent assay (ELISA) was used to determine the IgG antibody titre. […] Plates were washed as above and secondary antibody binding was detected with the addition of 3,3′,5,5′-Tetramethylbenzidine (TMB) reagent (Thermo Fisher Scientific) at 50 µl/well. […]

In data set [6] the test system is RSV. As to the kind of experiment: RSV plaque reduction neutralisation test (PRNT). The data set is classed as cell-based, RSV (A2). The conditions noted are these: purified chimeric recombinant anti-F antibody, Vero cells. The method, then: Vero cells were seeded in 96-well tissue culture plates (Nunc®) at 4 × 10^4 cells/well in Opti-MEM supplemented with 3% FBS and 100 U penicillin with 100 μg/ml streptomycin. After overnight growth to allow a confluent monolayer, serial dilutions of virus stock were prepared in Opti-MEM (2% FBS and 100 U penicillin with 100 μg/ml streptomycin) and incubated at 37 °C, 5% CO2 for 1 h. Cell monolayers were inoculated with 50 μL of virus and incubated. After 1 h, the inoculum was replaced with overlay medium (Medium 199 with 3% methylcellulose, 2% FBS, 100 U penicillin with 100 μg/ml streptomycin) and incubated at 37 °C for 72 h. Overlay medium was aspirated and cells were fixed (80% acetone) and immunostained with a recombinant anti-RSV monoclonal antibody followed by IRDye® 800CW goat anti-mouse IgG, LI-COR Biosciences (1:2500). Plaques were read using Odyssey® Imager (LI-COR Biosciences) and titre was recorded as PFU/ml.
PRNT assays were performed as previously described. Briefly, pooled Sera was heat inactivated at 56 °C for 30 min. Dilutions of serum were combined with 50 PFU of RSV in serum free Opti-MEM and incubated at 37 °C for 1 h before applying to confluent monolayers of Vero cells in TC96-well plates. Cells were incubated with the serum-virus mixture at 37 °C for 1 h. Inoculum was aspirated and overlay medium was added and cells were incubated at 37 °C for 72 h. […]

One may read the Kd as the equilibrium constant for the complex coming apart. Regarding “Ac-LTNSELLSLINDMPITNDQKKLMSNNVQIVRQQS-NH2 [IIP5]”, the Kd in data set [1] worked out at 23 ± 5 nM. Besides, the “antigen specific IgG response in sera (in words)” value in data set [2] is recorded as “higher specific IgG titres; also recorded: strong response”.
Turning to “I: Ac-LTNSELLSLINDMPITNDQKKLMSNNVQIVRQQS / II: Ac-AKFVAAWTLKAAAKSS[ξGly(tetradecyl)][ξGly(tetradecyl)]-NH2 (amide I:C-II:14) [IILCP5]”, the “Diameter DLS” value in data set [3] is 181±25 nm. Besides, the Kd in data set [1] was found to be 16 ± 3 nM. In addition, the “antigen specific IgG response in sera (in words)” value in data set [2] is “higher specific IgG titres; also recorded: robust antibody response”.
As to “I: Ac-[ξGly(tetradecyl)][ξGly(tetradecyl)]LTNSELLSLINDMPITNDQKKLMSNNVQIVRQQS / II: Ac-AKFVAAWTLKAAAKSS[ξGly(tetradecyl)][ξGly(tetradecyl)]-NH2 (amide I:C-II:14) [IILCP7]”, the “Diameter DLS” value in data set [3] stood at 261±20 nm. Also, the “aggregation under CD measurement condition” value in data set [4] was “aggregation”. Further, the Kd in data set [1] was determined as 17 ± 11 nM.
As for KNYIDKQLLPIVNKQS [ØP1], the “recognition by D25 (in words)” value in data set [5] was “Neither ØP1 nor ØLCP1 bound to D25”.
In the case of Motavizumab, the “neutralisation of RSV by purified antibody (in words)” value in data set [6] was “potent neutralisation”.

The values above are taken from article PMC5593926, “Induction of high titred, non-neutralising antibodies by self-adjuvanting peptide epitopes derived from the respiratory syncytial virus fusion protein” (Scientific Reports, 2017).
